From ChEMBL document CHEMBL5325424, “Structural design, synthesis, and anti-Trypanosomatidae profile of new Pyridyl-thiazolidinones” (Eur J Med Chem, 2023) come the findings set out here.

The nature of data set [1]: Cytotoxicity against mouse RAW264.7 cells incubated for 48 hrs by MTT assay. Type of data set: toxicity, cell-based. In general terms: Formazan colour is commonly taken as a measure of viable cells.
Data set [2] can be described thus: Selectivity index, ratio of CC50 for mouse RAW264.7 cells to IC50 for Trypanosoma cruzi Tulahuen amastigotes infected in mouse L929 cells. It counts as toxicity, cell-based. The following applies: read-out: Ratio CC50/IC50.
The test system of data set [3] is Leishmania amazonensis. The data set can be described thus: Antileishmanial activity against Leishmania amazonensis WHOM/00 LTB 0016 amastigotes infected in mouse RAW264.7 cells assessed as parasite growth inhibition incubated for 24 hrs by panoptic staining based assay. Type of data set: functional, organism-based. The following applies: WHOM/00 LTB 0016, RAW264.7, 24 h.

Data set [4] in a line: Selectivity index, ratio of CC50 for mouse RAW264.7 cells to IC50 for Trypanosoma cruzi Y trypomastigotes infected in African green monkey Vero cells. It counts as toxicity. The following applies: read-out: Ratio CC50/IC50.
In data set [5] the test system is Leishmania amazonensis. Kind of data set: Antileishmanial activity against Leishmania amazonensis WHOM/00 LTB 0016 promastigotes assessed as parasite growth inhibition incubated for 72 hrs. It counts as functional, organism-based. The following applies: WHOM/00 LTB 0016, 72 h.
Data set [6] concerns Trypanosoma cruzi. Kind of data set: Antitrypanosomal activity against Trypanosoma cruzi Y trypomastigotes infected in African green monkey Vero cells assessed as parasite growth inhibition incubated for 24 hrs by hemocytometry. It counts as functional, organism-based.
For data set [7], the system named is Trypanosoma cruzi. Kind of data set: Antitrypanosomal activity against Trypanosoma cruzi Tulahuen amastigotes infected in mouse L929 cells assessed as parasite growth inhibition measured after 7 days by CPRG/Nonidet based assay. Type of data set: functional, organism-based. The settings on record: L929, 168 h.
The nature of data set [8]: Selectivity index, ratio of CC50 for mouse RAW264.7 cells to IC50 for Leishmania amazonensis WHOM/00 LTB 0016 amastigotes infected in mouse RAW264.7 cells. The settings on record: read-out: Ratio CC50/IC50. Type of data set: toxicity, cell-based.
Data set [9] can be described thus: Selectivity index, ratio of CC50 for mouse RAW264.7 cells to IC50 for Leishmania amazonensis WHOM/00 LTB 0016 promastigotes. Type of data set: toxicity. The following applies: read-out: Ratio CC50/IC50.

The structures appear in SMILES notation.

For orientation: CC50 means the concentration giving 50% cytotoxicity. The term IC50 denotes the concentration needed to halve the response being measured. As to `C/C(=N\NC(=S)Nc1ccccc1)c1ccncc1`, in data set [1], the CC50 at 48 h is 740 µM. Besides, the selectivity ratio worked out at 256 in data set [2], 583 in data set [4], 2 in [8] and 17.9 in [9]. Also, the IC50 in the data set with Leishmania amazonensis [3] came out at 370 µM; in the data set with Leishmania amazonensis [5] it was 41.4 µM; with Trypanosoma cruzi [6], 1.27 µM; in the data set with Trypanosoma cruzi [7], 2.88 µM.

The compound `CNC(=S)N/N=C/c1ccccn1` had a CC50 at 48 h in [1] of 55.1 µM. Besides, the selectivity ratio in data set [2] is 9.72; in data set [4], 27; in data set [8] it was 0.1; in [9], 3.97. Besides, the IC50 amounted to 515 µM in the data set on Leishmania amazonensis [3], 13.8 µM in the data set on Leishmania amazonensis [5], 2.04 µM in the data set with Trypanosoma cruzi [6] and 5.66 µM in the data set on Trypanosoma cruzi [7].

In the case of `CC(C)C1S/C(=N/N=C/c2ccccn2)NC1=O` (centres undefined), in [1], the CC50 at 48 h turned out to be 256 µM. Also, the selectivity ratio was found to be 305 in data set [2], 5.8 in data set [4], 29.2 in data set [8] and 6.4 in data set [9]. The IC50 in the data set with Leishmania amazonensis [3] worked out at 8.77 µM; with Leishmania amazonensis [5], 40.3 µM; in the data set with Trypanosoma cruzi [6], 43.9 µM; in the data set with Trypanosoma cruzi [7] it was 0.84 µM.

`C/C(=N\NC(N)=S)c1ccccn1` gave a CC50 at 48 h in [1] of 16.1 µM. Moreover, the selectivity ratio in data set [2] worked out at 11.6; in [4], 0.11; in data set [8], 0.03; in [9], 0.8. In addition, the IC50 in the data set with Leishmania amazonensis [3] came out at 515 µM; in the data set on Leishmania amazonensis [5], 20 µM; in the data set on Trypanosoma cruzi [6], 138 µM; in the data set with Trypanosoma cruzi [7], 1.39 µM.

In data set [1], `C/C(=N\N=C1/SCC(=O)N1C)c1ccccn1` displayed a CC50 at 48 h of 291 µM. In addition, the selectivity ratio in data set [2] was 3.61; in [4], 2.6; in [8] it was 3.61; in [9], 0.6. In addition, the IC50 in the data set with Leishmania amazonensis [3] stood at 80.5 µM; in the data set with Leishmania amazonensis [5], 506 µM; in the data set on Trypanosoma cruzi [6], 111 µM; in the data set on Trypanosoma cruzi [7] it was 80.5 µM.

Turning to `O=C1CS/C(=N/N=C/c2ccccn2)N1`, in [1], the CC50 at 48 h stood at 486 µM. The selectivity ratio in [2] was 59.3; in data set [4], 42.6; in data set [8], 7.74; in data set [9], 6. Also, the IC50 in the data set with Leishmania amazonensis [3] is 62.8 µM; in the data set with Leishmania amazonensis [5] it was 80.6 µM; with Trypanosoma cruzi [6], 11.3 µM; with Trypanosoma cruzi [7], 8.21 µM.

The compound `N/C(S)=N/N=C/c1ccccn1` came in with a half-maximal cytotoxic concentration (CC50) at 48 h in [1] of 8.65 µM. Further, the selectivity ratio came out at 5.37 in data set [2], 0.08 in [4], 0.01 in data set [8] and 0.54 in data set [9]. Also, the IC50 with Leishmania amazonensis [3] came to 555 µM; with Leishmania amazonensis [5], 15.9 µM; with Trypanosoma cruzi [6] it was 99.8 µM; with Trypanosoma cruzi [7], 1.6 µM.

Regarding `O=C1CS/C(=N/N=C/c2ccccn2)N1c1ccccc1`, the CC50 at 48 h in data set [1] was found to be 61.9 µM. Also, the selectivity ratio was determined as 16.2 in [2], 0.9 in [4], 0.18 in [8] and 0.1 in [9]. Further, the IC50 in the data set on Leishmania amazonensis [3] was determined as 337 µM; in the data set with Leishmania amazonensis [5] it was 675 µM; in the data set on Trypanosoma cruzi [6], 70.9 µM; with Trypanosoma cruzi [7] it was 3.81 µM.

As for `CC1(C)S/C(=N/N=C/c2ccccn2)NC1=O`, in [1], the CC50 at 48 h came to 449 µM. In addition, the selectivity ratio in data set [2] stood at 279; in data set [4], 5; in data set [8] it was 1.11; in [9], 3.7. The IC50 in the data set on Leishmania amazonensis [3] was determined as 403 µM; with Leishmania amazonensis [5], 123 µM; in the data set with Trypanosoma cruzi [6], 89.5 µM; with Trypanosoma cruzi [7], 1.61 µM.

With `CC(C)C1S/C(=N/N=C/c2ccccn2)N(C)C1=O` (centres undefined), in [1], it took 267 µM to reach half-maximal cytotoxicity (CC50 at 48 h). Also, the selectivity ratio in data set [2] worked out at 355; in data set [8], 14.3; in data set [9], 13.2. Moreover, the IC50 was 18.6 µM with Leishmania amazonensis [3], 20.2 µM in the data set with Leishmania amazonensis [5], 11 µM with Trypanosoma cruzi [6] and 0.75 µM in the data set with Trypanosoma cruzi [7].
